This passage reports IC50 results from ChEMBL document CHEMBL5441456, “ASAP - SARS-CoV-2 nsp3 macrodomain dose response” (2024).

Values joined by “and” are separate entries in the source; they are usually repeats but may differ in a detail not shown here. Equal values may be shown once.

In the experiment the target is Replicase polyprotein 1ab (Severe acute respiratory syndrome coronavirus 2, UniProt P0DTD1). As to the kind of experiment: Functional biochemical assay to identify treatments for viral infectious disease that targets SARS-COV-2 nsp3 macrodomain, whereby the mechanism of action displaces an ADP-Ribose modified peptide from the binding site. Utilizing a time-resolved fluorescence method to measure binding by reading the emitted fluorescence intensity in two wavelengths.
One may read the IC50 as the concentration that gives 50% inhibition. In the case of `CC(C)[C@@H](Nc1ncnc2[nH]c(-c3cc(-c4ccccc4)n[nH]3)cc12)c1ccc2c(c1)OCCO2`, the concentration for half-maximal inhibition (IC50) is greater than 99.5 µM. With `CC(C)[C@@H](Nc1ncnc2[nH]ccc12)c1ccc2cn[nH]c2c1` the figure was greater than 99.5 µM; with `CC(C)[C@@H](Nc1ncnc2[nH]c(-c3ccnn3C)cc12)c1ccc2c(c1)OCCO2`, 0.699 µM and 0.883 µM and 0.832 µM; with `CCc1n[nH]cc1-c1cc2c(N[C@@H](c3ccc4c(c3)OCCO4)C(C)C)ncnc2[nH]1`, 1.19 µM and 0.961 µM. In the case of `CC(C)[C@@H](Nc1ncnc2[nH]c(-c3cc[nH]c3)cc12)c1ccc2c(c1)OCCO2`, the IC50 was 5.34 µM and 4.55 µM. `CC(C)[C@@H](Nc1ncnc2[nH]c(-c3cnn(-c4ccc(F)cc4)c3)cc12)c1ccc2c(c1)OCCO2`: the half-inhibitory concentration (IC50) is 27.4 µM and 26 µM. The figure for `CC(C)[C@@H](Nc1ncnc2[nH]c(-c3cnn(C)c3)cc12)c1ccc2c(c1)OCCO2` is 0.538 µM and 0.616 µM and 0.618 µM.

On to `Cc1noc2ncc(-c3cc4c(N[C@@H](c5ccc6c(c5)OCCO6)C(C)C)ncnc4[nH]3)cc12`, for which the IC50 was 3.73 µM and 3 µM.

On to `CC(C)[C@@H](Nc1ncnc2[nH]c(-c3cnn(C4CC4)c3)cc12)c1ccc2c(c1)OCCO2`, for which the IC50 is 0.998 µM and 1.23 µM and 1.12 µM. The figure for `Cc1nnn(C)c1-c1cc2c(N[C@@H](c3ccc4c(c3)OCCO4)C(C)C)ncnc2[nH]1` is 10.1 µM and 8.67 µM; for `CC(C)[C@@H](Nc1ncnc2[nH]c(-c3ccco3)cc12)c1ccc2c(c1)OCCO2` it is 6.2 µM and 6.1 µM.

Turning to `CC(C)[C@@H](Nc1ncnc2[nH]c(-c3cncc(C(=O)N(C)C)c3)cc12)c1ccc2c(c1)OCCO2`, the IC50 was 0.746 µM and 0.819 µM. The figure for `CC(C)[C@@H](Nc1ncnc2[nH]ccc12)c1ccc2c(c1)NC(=O)[C@@H](C)O2` is 2.69 µM and 2.9 µM; for `CCn1nccc1-c1cc2c(N[C@@H](c3ccc4c(c3)OCCO4)C(C)C)ncnc2[nH]1` it is 0.892 µM and 1.42 µM and 1.29 µM.

Consider `CC(C)[C@@H](Nc1ncnc2[nH]c(-c3cccc(Cn4ccnc4)c3)cc12)c1ccc2c(c1)OCCO2`, for which the concentration for half-maximal inhibition (IC50) was greater than 99.5 µM. As to `Cc1c(-c2cc3c(N[C@@H](c4ccc5c(c4)OCCO5)C(C)C)ncnc3[nH]2)cnn1C`, the half-maximal inhibitory concentration (IC50) is 0.639 µM and 0.701 µM. Take `CC(C)[C@@H](Nc1ncnc2[nH]c(-c3cnc4c(c3)CC(=O)N4)cc12)c1ccc2c(c1)OCCO2`: the IC50 is 1.3 µM and 1.51 µM. In the case of `CC(C)[C@@H](Nc1ncnc2[nH]c(-c3cn[nH]c3)cc12)c1ccc2c(c1)OCCO2`, the IC50 was 0.713 µM and 0.737 µM. On to `COC(=O)c1cc(-c2cc3c(N[C@@H](c4ccc5c(c4)OCCO5)C(C)C)ncnc3[nH]2)c[nH]1`, for which the half-maximal inhibitory concentration (IC50) is 4.97 µM and 5 µM. Consider `CNC(=O)c1cc2c(N[C@@H](c3ccc4c(c3)NC(=O)CO4)C(C)C)ncnc2[nH]1`, for which the IC50 was 0.164 µM and 0.143 µM and 0.163 µM and 0.154 µM.

`Cc1ncc(-c2cc3c(N[C@@H](c4ccc5c(c4)OCCO5)C(C)C)ncnc3[nH]2)n1C`: the IC50 was 0.674 µM and 0.711 µM. The figure for `CC(C)[C@@H](Nc1ncnc2[nH]ccc12)c1ccc2c(n1)NC(=O)CO2` is 2.61 µM and 2.71 µM; for `CC(C)[C@@H](Nc1ncnc2[nH]c(-c3cnn(C4CCC4)c3)cc12)c1ccc2c(c1)OCCO2` it is 1.17 µM and 1.52 µM and 1.4 µM; for `Cc1cn[nH]c1-c1cc2c(N[C@@H](c3ccc4c(c3)OCCO4)C(C)C)ncnc2[nH]1` it is 6.78 µM and 8.84 µM and 8.77 µM.

Consider `COCCn1cc(-c2cc3c(N[C@@H](c4ccc5c(c4)OCCO5)C(C)C)ncnc3[nH]2)c(C#N)n1`, for which the concentration for half-maximal inhibition (IC50) was 0.676 µM and 0.868 µM. The figure for `CC(C)[C@@H](Nc1ncnc2[nH]c(-c3cnn(C(C)C)c3)cc12)c1ccc2c(c1)OCCO2` is 0.757 µM and 0.962 µM and 0.864 µM. The figure for `Cc1nn(C)cc1-c1cc2c(N[C@@H](c3ccc4c(c3)OCCO4)C(C)C)ncnc2[nH]1` is 0.411 µM and 0.493 µM and 0.469 µM. The figure for `CC(C)[C@@H](Nc1ncnc2[nH]c(-c3cnn(CC4(C#N)CC4)c3)cc12)c1ccc2c(c1)OCCO2` is 0.421 µM and 0.446 µM; for `CC(C)[C@@H](Nc1ncnc2[nH]c(-c3ccnn3C(C)C)cc12)c1ccc2c(c1)OCCO2` it is 3.02 µM and 2.94 µM; for `Cc1nn(CC(N)=O)cc1-c1cc2c(N[C@@H](c3ccc4c(c3)OCCO4)C(C)C)ncnc2[nH]1` it is 0.33 µM and 0.341 µM.

With `CC(C)[C@@H](Nc1ncnc2[nH]c(-c3cnn(C(C)C)n3)cc12)c1ccc2c(c1)OCCO2`, the concentration for half-maximal inhibition (IC50) is 1.7 µM and 2.13 µM.
